Laboratory results as given in patent US4285940A, “Cephalosporin derivatives, and antibacterial drugs comprising said derivatives” (Eisai Co., Ltd., priority 1979, dated 1981).

Assays:
[1] = test system: Pseudomonas aeruginosa EP-172; experiment: MIC by standard agar dilution method of the Japan Society of Chemotherapy; type: cell-based; conditions: EP172, Mueller Hinton agar, 18 hours at 37° C., Examples 1, 2, 4 as sodium salts, Example 5 as free acid
Experimental: (§1) Minimal inhibitory concentration (MIC) was determined by the standard agar dilution method of the Japan Society of Chemotherapy.
(§2) The compounds described in Examples 1, 2 and 4 were dissolved in sterilized water; the compound described in Example 5 was dissolved in acetone-water (1:1); and the control compound, cephaloglycin, was dissolved in a 3% sodium hydrogen carbonate solution.
(§3) Serial two-fold dilutions were made from the above solutions.
(§4) One-ml aliquots of each dilution were mixed with 9 ml of Mueller Hinton agar in petri-dishes to make agar plates containing the compound at serially diluted concentrations. After agar hardened, plates were put in an incubator at 37° C. for 1.5-2 hours with the lids slightly open to evaporate acetone off the plates.
(§5) Test organisms were grown for 18 hours at 37° C. in Trypticase Soy broth and diluted in saline to approximately 10^6 colony forming units per ml. A loopful of each cell suspension was applied on the agar plate mentioned above and the plates were incubated for 18 hours at 37° C. before MIC was determined.
(§6) MIC values of the compounds described in Examples 1, 2 and 4 were determined as their sodium salts and the compound described in Example 5 was determined as a free carboxylic acid.

[2] = test system: Serratia marcescens ES-75; experiment: as above; type: cell-based; conditions: ES75, Mueller Hinton agar, 18 hours at 37° C., Examples 1, 2, 4 as sodium salts, Example 5 as free acid
Experimental: as §1, §2, §3, §4, §5, §6

[3] = test system: Staphylococcus aureus 209P; experiment: as above; type: cell-based; conditions: Mueller Hinton agar, 18 hours at 37° C., Examples 1, 2, 4 as sodium salts, Example 5 as free acid
Experimental: as §1, §2, §3, §4, §5, §6

[4] = test system: Klebsiella pneumoniae EK-6; experiment: as above; type: cell-based; conditions: EK6, Mueller Hinton agar, 18 hours at 37° C., Examples 1, 2, 4 as sodium salts, Example 5 as free acid
Experimental: as §1, §2, §3, §4, §5, §6

Proteus morganii EP-14 = experiment: as above; type: cell-based; conditions: Morganella morganii, EP14, Mueller Hinton agar, 18 hours at 37° C., Examples 1, 2, 4 as sodium salts, Example 5 as free acid
Experimental: as §1, §2, §3, §4, §5, §6

Escherichia coli NIHJ = experiment: as above; type: cell-based; conditions: Mueller Hinton agar, 18 hours at 37° C., Examples 1, 2, 4 as sodium salts, Example 5 as free acid
Experimental: as §1, §2, §3, §4, §5, §6

[5] = acute toxicity (mouse, oral administration); conditions: in vivo

| Structure (SMILES) | MIC [1] [µg/mL] | MIC [2] [µg/mL] | MIC [3] [µg/mL] | MIC [4] [µg/mL] | MIC (Proteus morganii EP-14) [µg/mL] | MIC (Escherichia coli NIHJ) [µg/mL] | LD50 [5] [mg/kg] |
| --- | --- | --- | --- | --- | --- | --- | --- |
| CC(=O)OCC1=C(C(=O)O)N2C(=O)[C@@H](NC(=O)[C@H](N)c3ccccc3)[C@H]2SC1 [Cephaloglycin, cephaloglycin, reference compound] | 100 | 100 | 0.8 | 1.56 | 25 | 3.13 |  |
| CC(=O)OCC1=C(C(=O)O)N2C(=O)[C@@H](NC(=O)[C@H](NC(=O)c3coc4cc(O)c(O)cc4c3=O)c3ccc(O)cc3)[C@H]2SC1 [Example 1, 7β-[D-2-(6,7-Dihydroxychromone-3-carboxamido)-2-(4-hydroxyphenyl)acetamido]-3-acetoxymethyl-3-cephem-4-carboxylic acid] | 3.13 | 3.13 | 3.13 | 0.2 | 50 | 3.13 | > 5000 |
| CC(=O)OCC1=C(C(=O)O)N2C(=O)[C@@H](NC(=O)[C@H](NC(=O)c3coc4cc(OC(C)=O)c(OC(C)=O)cc4c3=O)c3ccc(O)cc3)[C@H]2SC1 [Example 2, 7β-[D-2-(6,7-Diacetoxychromone-3-carboxamido)-2-(4-hydroxyphenyl)acetamido]-3-acetoxymethyl-3-cephem-4-carboxylic acid] | 3.13 | 6.25 | 6.25 | 0.2 | 100 | 12.5 | > 5000 |
| CC(=O)OCC1=C(C(=O)O)N2C(=O)[C@@H](NC(=O)[C@H](NC(=O)c3coc4c(O)c(O)ccc4c3=O)c3ccc(O)cc3)[C@H]2SC1 [Example 4, 7β-[D-2-(7,8-Dihydroxychromone-3-carboxamido)-2-(4-hydroxyphenyl)acetamido]-3-acetoxymethyl-3-cephem-4-carboxylic acid] | 1.56 | 100 | 0.8 | 0.2 | 100 | 12.5 |  |
| CC(=O)OCC1=C(C(=O)O)N2C(=O)[C@@H](NC(=O)[C@H](NC(=O)c3coc4c(OC(C)=O)c(OC(C)=O)ccc4c3=O)c3ccc(O)cc3)[C@H]2SC1 [Example 5, 7β-[D-2-(7,8-Diacetoxychromone-3-carboxamido)-2-(4-hydroxyphenyl)acetamido]-3-acetoxymethyl-3-cephem-4-carboxylic acid] | 3.13 | 25 | 6.25 | 0.4 | 25 | 3.13 |  |
